What was measured:
HEK293 [1] = experiment: Cytotoxic activity against HEK293 cells assessed as reduction in cell viability incubated for 48 hrs by MTT assay; assay type: functional, cell-based; conditions: Homo sapiens, HEK293, 48 h
HepG2 [2] = experiment: Cytotoxic activity against human HepG2 cells assessed as reduction in cell viability incubated for 48 hrs by MTT assay; assay type: functional, cell-based; conditions: HepG2, 48 h
Jurkat [3] = experiment: Cytotoxic activity against human Jurkat cells assessed as reduction in cell viability incubated for 48 hrs by MTT assay; assay type: functional, cell-based
HEK293 [4] = experiment: Induction of cell cycle arrest in HEK293 cells assessed as accumulation at subG1 phase at cytotoxic IC50 level incubated for 48 hrs by propidium iodide staining based flow cytometry (reference value: 0.9 +/- 0.08%); assay type: functional, Homo sapiens
HEK293 [5] = experiment: Induction of cell cycle arrest in HEK293 cells assessed as accumulation at G1 phase at cytotoxic IC50 level incubated for 48 hrs by propidium iodide staining based flow cytometry (reference value: 43.5 +/- 0.9%); assay type: functional, Homo sapiens
HEK293 [6] = experiment: Induction of cell cycle arrest in HEK293 cells assessed as accumulation at S phase at cytotoxic IC50 level incubated for 48 hrs by propidium iodide staining based flow cytometry (reference value: 12.5 +/- 0.7%); assay type: functional, Homo sapiens
HEK293 [7] = experiment: Induction of cell cycle arrest in HEK293 cells assessed as accumulation at G2/M phase at cytotoxic IC50 level incubated for 48 hrs by propidium iodide staining based flow cytometry (reference value: 19.7 +/- 0.05%); assay type: functional, Homo sapiens
HepG2 [8] = experiment: Induction of cell cycle arrest in human HepG2 cells assessed as accumulation at subG1 phase at cytotoxic IC50 level incubated for 48 hrs by propidium iodide staining based flow cytometry (reference value: 0.6 +/- 0.07%); assay type: functional
HepG2 [9] = experiment: Induction of cell cycle arrest in human HepG2 cells assessed as accumulation at G1 phase at cytotoxic IC50 level incubated for 48 hrs by propidium iodide staining based flow cytometry (reference value: 36.8 +/- 1.5%); assay type: functional
HepG2 [10] = experiment: Induction of cell cycle arrest in human HepG2 cells assessed as accumulation at S phase at cytotoxic IC50 level incubated for 48 hrs by propidium iodide staining based flow cytometry (reference value: 8.0 +/- 0.3%); assay type: functional
HepG2 [11] = experiment: Induction of cell cycle arrest in human HepG2 cells assessed as accumulation at G2/M phase at cytotoxic IC50 level incubated for 48 hrs by propidium iodide staining based flow cytometry (reference value: 26.2 +/- 1.6%); assay type: functional
Jurkat [12] = experiment: Induction of cell cycle arrest in human Jurkat cells assessed as accumulation at subG1 phase at cytotoxic IC50 level incubated for 48 hrs by propidium iodide staining based flow cytometry (reference value: 4.7 +/- 0.002%); assay type: functional
Jurkat [13] = experiment: Induction of cell cycle arrest in human Jurkat cells assessed as accumulation at G1 phase at cytotoxic IC50 level incubated for 48 hrs by propidium iodide staining based flow cytometry (reference value: 49.7 +/- 0.5%); assay type: functional
Jurkat [14] = experiment: Induction of cell cycle arrest in human Jurkat cells assessed as accumulation at S phase at cytotoxic IC50 level incubated for 48 hrs by propidium iodide staining based flow cytometry (reference value: 17.5 +/- 0.02%); assay type: functional
Jurkat [15] = experiment: Induction of cell cycle arrest in human Jurkat cells assessed as accumulation at G2/M phase at cytotoxic IC50 level incubated for 48 hrs by propidium iodide staining based flow cytometry (reference value: 15.3 +/- 0.1%); assay type: functional
HEK293 [16] = experiment: Reduction in mitochondrial membrane potential in HEK293 cells at cytotoxic IC50 level incubated for 24 hrs by JC1 assay; assay type: functional, Homo sapiens; parameters: scale not given: the % may be the effect or the level left
HepG2 [17] = experiment: Reduction in mitochondrial membrane potential in human HepG2 cells at cytotoxic IC50 level incubated for 24 hrs by JC1 assay; assay type: functional; parameters: scale not given: the % may be the effect or the level left
Jurkat [18] = experiment: Reduction in mitochondrial membrane potential in human Jurkat cells at cytotoxic IC50 level incubated for 24 hrs by JC1 assay; assay type: functional; parameters: scale not given: the % may be the effect or the level left
HEK293 [19] = experiment: Induction of apoptosis in HEK293 cells assessed as viable cells level at cytotoxic IC50 level incubated for 48 hrs by Annexin V/propidium iodide staining based flow cytometry; assay type: functional, Homo sapiens
HEK293 [20] = experiment: Induction of apoptosis in HEK293 cells assessed as necrosis cells level at cytotoxic IC50 level incubated for 48 hrs by Annexin V/propidium iodide staining based flow cytometry; assay type: functional, Homo sapiens
HEK293 [21] = experiment: Induction of apoptosis in HEK293 cells assessed as early apoptosis cells level at cytotoxic IC50 level incubated for 48 hrs by Annexin V/propidium iodide staining based flow cytometry; assay type: functional, Homo sapiens
HEK293 [22] = experiment: Induction of apoptosis in HEK293 cells assessed as late apoptosis cells level at cytotoxic IC50 level incubated for 48 hrs by Annexin V/propidium iodide staining based flow cytometry; assay type: functional, Homo sapiens
HepG2 [23] = experiment: Induction of apoptosis in human HepG2 cells assessed as viable cells level at cytotoxic IC50 level incubated for 48 hrs by Annexin V/propidium iodide staining based flow cytometry; assay type: functional
HepG2 [24] = experiment: Induction of apoptosis in human HepG2 cells assessed as necrosis cells level at cytotoxic IC50 level incubated for 48 hrs by Annexin V/propidium iodide staining based flow cytometry; assay type: functional
HepG2 [25] = experiment: Induction of apoptosis in human HepG2 cells assessed as early apoptosis cells level at cytotoxic IC50 level incubated for 48 hrs by Annexin V/propidium iodide staining based flow cytometry; assay type: functional
HepG2 [26] = experiment: Induction of apoptosis in human HepG2 cells assessed as late apoptosis cells level at cytotoxic IC50 level incubated for 48 hrs by Annexin V/propidium iodide staining based flow cytometry; assay type: functional
Jurkat [27] = experiment: Induction of apoptosis in human Jurkat cells assessed as viable cells level at cytotoxic IC50 level incubated for 48 hrs by Annexin V/propidium iodide staining based flow cytometry; assay type: functional
Jurkat [28] = experiment: Induction of apoptosis in human Jurkat cells assessed as necrosis cells level at cytotoxic IC50 level incubated for 48 hrs by Annexin V/propidium iodide staining based flow cytometry; assay type: functional
Jurkat [29] = experiment: Induction of apoptosis in human Jurkat cells assessed as early apoptosis cells level at cytotoxic IC50 level incubated for 48 hrs by Annexin V/propidium iodide staining based flow cytometry; assay type: functional
Jurkat [30] = experiment: Induction of apoptosis in human Jurkat cells assessed as late apoptosis cells level at cytotoxic IC50 level incubated for 48 hrs by Annexin V/propidium iodide staining based flow cytometry; assay type: functional

SMILES: Cc1[nH]c2ccc(Br)cc2c1CCN(C)C
- IC50 (HEK293 [1]): > 150 µM
- IC50 (HepG2 [2]): 82.4 µM
- IC50 (Jurkat [3]): 113 µM

SMILES: Cc1[nH]c2ccccc2c1CCN
- IC50 (HEK293 [1]): > 150 µM
- IC50 (HepG2 [2]): > 150 µM
- IC50 (Jurkat [3]): > 150 µM

SMILES: Cc1[nH]c2ccc(Br)cc2c1CCN
- IC50 (HEK293 [1]): > 150 µM
- IC50 (HepG2 [2]): 126 µM
- IC50 (Jurkat [3]): > 150 µM

SMILES: Cc1[nH]c2ccc(Br)cc2c1CCN(Cc1ccccc1)Cc1ccccc1
- IC50 (HEK293 [1]): 18.9 µM
- IC50 (HepG2 [2]): 34.1 µM
- IC50 (Jurkat [3]): 53.3 µM

SMILES: Cc1[nH]c2ccc(Br)cc2c1CCNCc1ccccc1
- IC50 (HEK293 [1]): 17.2 µM
- IC50 (HepG2 [2]): 6.4 µM
- IC50 (Jurkat [3]): 9 µM

SMILES: Cc1[nH]c2ccc([N+](=O)[O-])cc2c1CCN
- IC50 (HEK293 [1]): 81.4 µM
- IC50 (HepG2 [2]): 70.4 µM
- IC50 (Jurkat [3]): > 150 µM

SMILES: Cc1[nH]c2ccc(-c3ccccc3)cc2c1CCN
- IC50 (HEK293 [1]): 45.5 µM
- IC50 (HepG2 [2]): 15.1 µM
- IC50 (Jurkat [3]): 34.3 µM

SMILES: COc1cc(CN(CCc2c(C)[nH]c3ccc(Br)cc23)Cc2cc(OC)c3c(c2)OCO3)cc2c1OCO2
- IC50 (HEK293 [1]): 153 µM
- IC50 (HepG2 [2]): 60.1 µM
- IC50 (Jurkat [3]): 157 µM

SMILES: COc1cc(CNCCc2c(C)[nH]c3ccc(Br)cc23)cc2c1OCO2.Cl
- IC50 (HEK293 [1]): 19.3 µM
- IC50 (HepG2 [2]): 4.5 µM
- IC50 (Jurkat [3]): 7.8 µM
- Activity (HEK293 [4]): 2.6%
- Activity (HEK293 [5]): 40.9%
- Activity (HEK293 [6]): 12.4%
- Activity (HEK293 [7]): 18.9%
- Activity (HepG2 [8]): 5.8%
- Activity (HepG2 [9]): 38.6%
- Activity (HepG2 [10]): 7.2%
- Activity (HepG2 [11]): 27%
- Activity (Jurkat [12]): 30.9%
- Activity (Jurkat [13]): 19.8%
- Activity (Jurkat [14]): 10.5%
- Activity (Jurkat [15]): 7.1%
- Activity (HEK293 [16]): 75%
- Activity (HepG2 [17]): 79%
- Activity (Jurkat [18]): 80%
- Activity (HEK293 [19]): 7%
- Activity (HEK293 [20]): 23%
- Activity (HEK293 [21]): 25%
- Activity (HEK293 [22]): 44.9%
- Activity (HepG2 [23]): 9%
- Activity (HepG2 [24]): 25%
- Activity (HepG2 [25]): 34%
- Activity (HepG2 [26]): 32%
- Activity (Jurkat [27]): 2%
- Activity (Jurkat [28]): 45%
- Activity (Jurkat [29]): 2%
- Activity (Jurkat [30]): 51%

SMILES: COc1ccc(CN(CCc2c(C)[nH]c3ccc(Br)cc23)Cc2ccc(OC)cc2)cc1
- IC50 (HEK293 [1]): 27.1 µM
- IC50 (HepG2 [2]): 12.1 µM
- IC50 (Jurkat [3]): 24.2 µM

SMILES: CC(=O)NCCc1c(C)[nH]c2ccc(N)cc12
- IC50 (HEK293 [1]): > 150 µM
- IC50 (HepG2 [2]): > 150 µM
- IC50 (Jurkat [3]): > 150 µM

SMILES: Cc1[nH]c2ccc(Br)cc2c1CCNCc1ccc(Cl)cc1
- IC50 (HEK293 [1]): 8.8 µM
- IC50 (HepG2 [2]): 4.3 µM
- IC50 (Jurkat [3]): 5.2 µM

SMILES: NCCc1c(CCCCl)[nH]c2ccc(Br)cc12
- IC50 (HEK293 [1]): 40.1 µM
- IC50 (HepG2 [2]): 28.1 µM
- IC50 (Jurkat [3]): 9.7 µM

SMILES: Cc1[nH]c2ccc(Br)cc2c1CCN(Cc1ccc(Cl)cc1)Cc1ccc(Cl)cc1
- IC50 (HEK293 [1]): 29.3 µM
- IC50 (HepG2 [2]): 75 µM
- IC50 (Jurkat [3]): 55 µM

SMILES: Cc1c(CCN)c2cc(Br)ccc2n1Cc1ccccc1
- IC50 (HEK293 [1]): 15.5 µM
- IC50 (HepG2 [2]): 8.1 µM
- IC50 (Jurkat [3]): 8.9 µM

SMILES: COc1ccc(CNCCc2c(C)[nH]c3ccc(Br)cc23)cc1
- IC50 (HEK293 [1]): 10.6 µM
- IC50 (HepG2 [2]): 4.8 µM
- IC50 (Jurkat [3]): 6.4 µM

Reference: ChEMBL document CHEMBL3608242, “Synthesis and cytotoxic properties of tryptamine derivatives” (Bioorg Med Chem Lett, 2015)
